Measured values published in patent US20210301315A1, “METHODS FOR TREATING POLYMICROBIAL INFECTIONS” (priority 2017, published 2021).
Entries after “also recorded” stand apart in the source; their conditions may differ.

How the values were obtained:
[1] = system: Coagulase-negative Staphylococcus (CoNS) and K. pneumoniae; test: P-AST species-pair interaction on antibiotic resistance (logistic regression, HSAP/UP); format: cell-based, Coagulase negative staphylococci; Klebsiella pneumoniae; details: CoNS and K. pneumoniae together v. expected from each species alone (HSAP/UP)
Protocol: (§1) The Pooled Antibiotic Sensitivity Test (P-AST) is permitting the organisms identified to grow in the presence of antibiotics and measuring the minimum concentration of antibiotic to inhibit growth. Antibiotic susceptibility testing is performed when at least a single organism within a pool of organisms reaches a certain threshold, (e.g., at least 3,000 cells/ml, at least 5,000 cells/ml, at least 10,000 cells/ml, etc.) and can grow in the presence of the antibiotic in the assay within the time of testing. (Note: 10,000 cells/ml is equivalent to 10,000 CFU/ml.) The present invention is not limited to a 10,000 cells/mL threshold. These pools of organism(s) are inoculated into growth medium then placed onto an antibiotic laden “spec plate” that is then incubated and analyzed for growth. The breakpoints are derived from the CLSI breakpoints.
(§2) P-AST was performed by aliquoting 1 mL of patient urine specimen into a 1.7 mL microcentrifuge tube. After centrifugation, the supernatant was aspirated and discarded, leaving approximately 100 or 50 μL (minimum volume left above pellet created from centrifugation) of patient sample in the microcentrifuge tube. One mL of Mueller Hinton Growth Media was then aliquoted into the patient sample in the microcentrifuge tube and the tubes were incubated at 35° C. in a non-CO2 incubator for 6 hours. Non-inoculated liquid MH-media is incubated as the negative control to confirm the media used is not contaminated. Those samples that reached a minimum threshold of 10,000 cells/mL were then diluted by aliquoting 0.5 mL of sample into a 50 mL conical tube containing Mueller Hinton Growth Media (in this example, the dilution was 1:60, e.g., 500 μL was added to 29.5 mL). 96-well plates pre-loaded with antibiotics were then inoculated with diluted samples and incubated along with control plates for 12-16 hours at 35° C. in a single layer. Optical density of samples was then read on a DensiCHEK plate reader. The DensiCHEK instrument is used to measure the concentration of turbid samples considered positive because PCR-ID result was >=10,000 cells/mL. The turbid samples were diluted/normalized to the same concentration and then added to a volume of liquid, e.g., 29.5 mL of liquid MH-media. A spectrophotometer (plate reader) is used to measure optical density of the samples in wells of antibiotics and inoculum in order to determine if there is growth in a well. The present invention is not limited to a concentration of 10,000 cells/mL.
Interactions between pairs of bacterial species were investigated using a logistic regression model to predict resistance in the presence of specific bacterial species. […]

[2] = system: bacteria detected in patient urine specimens; test: Pooled Antibiotic Susceptibility Testing (P-AST) of urine specimens, polymicrobial v. monomicrobial (logistic regression); format: cell-based; details: polymicrobial urine specimens
[3] = system: E. faecalis and S. agalactiae; test: P-AST species-pair interaction on antibiotic resistance (logistic regression, HSAP/UP); format: cell-based, Enterococcus faecalis; Streptococcus agalactiae; details: E. faecalis and S. agalactiae together v. expected from each species alone (HSAP/UP)
Protocol: as §1
(§3) P-AST was performed by aliquoting 1 mL of patient urine specimen into a 1.7 mL microcentrifuge tube. After centrifugation, the supernatant was aspirated and discarded, leaving approximately 100 or 50 μL (minimum volume left above pellet created from centrifugation) of patient sample in the microcentrifuge tube. […] Optical density of samples was then read on a DensiCHEK plate reader. […] A spectrophotometer (plate reader) is used to measure optical density of the samples in wells of antibiotics and inoculum in order to determine if there is growth in a well. […]

[4] = system: E. coli and S. agalactiae; test: as above; format: cell-based, Escherichia coli; Streptococcus agalactiae; details: E. coli and S. agalactiae together v. expected from each species alone (HSAP/UP)
Protocol: as §1, §2
(§4) Interactions between pairs of bacterial species were investigated using a logistic regression model to predict resistance in the presence of specific bacterial species. Bacterial species that tested positive in at least 30 samples were considered in the regression model: these 16 species were A. schaalii, A. urinae, A. omnicolens, CoNS, C. riegelii, E. faecalis, E. coli, K. oxytoca, K. pneumoniae, M. morganii, P. mirabilis, P. aeruginosa, S. aureus, S. agalactiae, U. urealyticum, VGS. Backward stepwise model selection was performed on the model with all main effects and all pairwise interactions using an enter significance level of α=0.10 and an exit significance level of α=0.05 to obtain the best fitting model. This model was used to predict resistance rates when a specific organism was present or when a specific pair of organisms were present.
(§5) Using the logistic regression model described above, the resistance rate for a pair of species was compared to the resistance rates for each species alone. […]

[5] = system: E. coli and P. mirabilis; test: as above; format: cell-based, Escherichia coli; Proteus mirabilis; details: E. coli and P. mirabilis together v. expected from each species alone (HSAP/UP)
Protocol: as §1, §2, §4, §5

[6] = system: Coagulase-negative Staphylococcus (CoNS) and E. coli; test: as above; format: cell-based, Coagulase negative staphylococci; Escherichia coli; details: CoNS and E. coli together v. expected from each species alone (HSAP/UP)
Protocol: as §1, §3

[7] = system: E. coli and K. oxytoca; test: as above; format: cell-based, Escherichia coli; Klebsiella oxytoca; details: E. coli and K. oxytoca together v. expected from each species alone (HSAP/UP)
Protocol: as §1, §3

[8] = system: E. faecalis and E. coli; test: as above; format: cell-based, Enterococcus faecalis; Escherichia coli; details: E. faecalis and E. coli together v. expected from each species alone (HSAP/UP)
Protocol: as §1, §3

[9] = system: E. faecalis and K. pneumoniae; test: as above; format: cell-based, Enterococcus faecalis; Klebsiella pneumoniae; details: E. faecalis and K. pneumoniae together v. expected from each species alone (HSAP/UP)
Protocol: as §1, §3

[10] = system: E. faecalis and P. mirabilis; test: as above; format: cell-based, Enterococcus faecalis; Proteus mirabilis; details: E. faecalis and P. mirabilis together v. expected from each species alone (HSAP/UP)
Protocol: as §1, §3

[11] = system: E. faecalis and P. aeruginosa; test: as above; format: cell-based, Enterococcus faecalis; Pseudomonas aeruginosa; details: E. faecalis and P. aeruginosa together v. expected from each species alone (HSAP/UP)
Protocol: as §1, §3

[12] = system: Coagulase-negative Staphylococcus (CoNS) and S. agalactiae; details: CoNS and S. agalactiae together v. expected from each species alone (HSAP/UP)
[13] = system: Coagulase-negative Staphylococcus (CoNS) and E. faecalis; test: P-AST species-pair interaction on antibiotic resistance (logistic regression, HSAP/UP); format: cell-based, Coagulase negative staphylococci; Enterococcus faecalis; details: CoNS and E. faecalis together v. expected from each species alone (HSAP/UP)
Protocol: as §1, §3

With CC1(C)S[C@@H]2[C@H](NC(=O)[C@H](N)c3ccccc3)C(=O)N2[C@H]1C(=O)O [Ampicillin, ampicillin] the “change in antibiotic resistance of the pair of organisms” value (shortened to “change in antibiotic resistance”) [1] was “reduced resistance”, the “odds of resistance for each additional species identified (in words)” value [2] was “increased” and the “change in antibiotic resistance” value [3] was “decrease in resistance; also recorded: decreased odds of resistance”. For the same compound, the “change in antibiotic resistance” value [4] was “decrease in resistance; also recorded: decreased odds of resistance”.

For CO[C@@]1(NC(=O)Cc2cccs2)C(=O)N2C(C(=O)O)=C(COC(N)=O)CS[C@@H]21 [Cefoxitin, cefoxitin], the “change in antibiotic resistance” value [5] was “decrease in resistance; also recorded: decreased odds of resistance”.

CO/N=C(\C(=O)N[C@@H]1C(=O)N2C(C(=O)O)=C(CSc3nc(=O)c(=O)[nH]n3C)CS[C@H]12)c1csc(N)n1 [Ceftriaxone, ceftriaxone] was tested, and the “change in antibiotic resistance” value [1] was “decrease in resistance; also recorded: decreased odds of resistance”, the “change in antibiotic resistance” value [6] was “decrease in resistance; also recorded: decreased probability in resistance; also recorded: decreased odds of resistance” and the “change in antibiotic resistance” value [4] was “decrease in resistance; also recorded: decreased odds of resistance”. The “change in antibiotic resistance” value [5] was “decrease in resistance; also recorded: decreased odds of resistance”.

With O=C(O)c1cn(C2CC2)c2cc(N3CCNCC3)c(F)cc2c1=O [Ciprofloxacin, ciprofloxacin] the “change in antibiotic resistance” value [1] was “decrease in resistance; also recorded: decreased odds of resistance”, the “change in antibiotic resistance” value [7] was “decrease in resistance; also recorded: decreased odds of resistance” and the “change in antibiotic resistance” value [4] was “decrease in resistance; also recorded: decreased odds of resistance”.

In the case of C[C@@H](O)[C@H]1C(=O)N2C(C(=O)O)=C(S[C@@H]3CN[C@H](C(=O)N(C)C)C3)[C@H](C)[C@H]12 [Meropenem, meropenem], the “change in antibiotic resistance” value [8] is reported as “decrease in resistance; also recorded: decreased odds of resistance”, the “change in antibiotic resistance” value [9] is reported as “decrease in resistance; also recorded: decreased odds of resistance” and the “change in antibiotic resistance” value [10] is reported as “decrease in resistance; also recorded: decreased odds of resistance”. The “change in antibiotic resistance” value [11] was “decrease in resistance; also recorded: decreased odds of resistance”.

For CN[C@H](CC(C)C)C(=O)N[C@H]1C(=O)N[C@@H](CC(N)=O)C(=O)N[C@H]2C(=O)N[C@H]3C(=O)N[C@H](C(=O)N[C@H](C(=O)O)c4cc(O)cc(O)c4-c4cc3ccc4O)[C@H](O)c3ccc(c(Cl)c3)Oc3cc2cc(c3O[C@@H]2O[C@H](CO)[C@@H](O)[C@H](O)[C@H]2O[C@H]2C[C@](C)(N)[C@H](O)[C@H](C)O2)Oc2ccc(cc2Cl)[C@H]1O [Vancomycin, vancomycin], the “odds of resistance for each additional species identified (in words)” value [2] was “increased”, the “change in antibiotic resistance” value [3] was “decrease in resistance; also recorded: decreased odds of resistance” and the “change in antibiotic resistance” value [12] was “decrease in resistance; also recorded: decreased odds of resistance”. The “change in antibiotic resistance” value [13] was “decrease in resistance; also recorded: decreased odds of resistance”.
